In patent publication US20250113824A1, “WEED CONTROL METHOD” (SUMITOMO CHEMICAL COMPANY, LIMITED, priority 2018, published 2025):

Key:
[1] = system: glyphosate-resistant weeds and volunteer glyphosate-tolerant soybean and cotton; assay: Soil treatment pot test in greenhouse (Example 1); format: in vivo; settings: soil treated on day of seeding; 6.25, 12.5, 25, 50, 100 or 150 g/ha; 200 L/ha; twenty-eight days after treatment
Description: (§1) In a plastic pot are seeded glyphosate-resistant Amaranthus palmeri in which the number of copies of EPSPS gene has been increased, glyphosate-resistant waterhemp in which the number of copies of EPSPS gene has been increased, glyphosate-resistant kochia in which the number of copies of EPSPS gene has been increased, marestail which is resistant to glyphosate by involving an ABC transporter, Guernsey fleabane which is resistant to glyphosate by involving an ABC transporter, fleabane which is resistant to glyphosate by involving an ABC transporter, glyphosate-resistant goosegrass having Thr102Ile, glyphosate-resistant goosegrass having Pro106Ser, glyphosate-resistant goosegrass having Pro106Ala, glyphosate-resistant goosegrass having Pro106Leu, glyphosate-resistant goosegrass having Thr102Ile and Pro106Ser, glyphosate-resistant darnel having Thr102Ile, glyphosate-resistant darnel having Pro106Ser, glyphosate-resistant darnel having Pro106Ala, glyphosate-resistant darnel having Pro106Leu, volunteer glyphosate-tolerant soybean, and volunteer glyphosate-tolerant cotton. On the same day, the soil is treated with the present compound at the application rate of 6.25, 12.5, 25, 50, 100 or 150 g/ha. The amount of a liquid sprayed is 200 L/ha. Subsequently, the plants are cultivated in a greenhouse.

[2] = system: glyphosate-resistant weeds and volunteer glyphosate-tolerant soybean and cotton; assay: Foliar treatment pot test in greenhouse (Example 2); format: in vivo; settings: foliar application after 21 days cultivation; 6.25, 125, 25, 50, 100 or 150 g/ha; 200 L/ha; fourteen days after treatment
Description: as §1, with “The plants are cultivated in a greenhouse for 21 days, and then” for “On the same day, the soil is treated with”, “compound is applied to foliage of the plants” for “compound”, “at” for “at the”, “[…],” for “12.5,”

For `CCOC(=O)COc1ncccc1Oc1cc(-n2c(=O)cc(C(F)(F)F)n(C)c2=O)c(F)cc1Cl` [present compound, ethyl [3-[2-chloro-4-fluoro-5-(1-methyl-6-trifluoromethyl-2,4-dioxo-1,2,3,4-tetrahydropyrimidin-3-yl)phenoxy]-2-pyridyloxy]acetate], the “effect against the weeds” value [1] was “significant effect” and the “effect against the weeds” value [2] was “significant effect”.
